According to publication PMC8746695, “Zinc-Chelating Compounds as Inhibitors of Human and Bacterial Zinc Metalloproteases” (Molecules, 2021):
“Also recorded” adds a separate entry of the source. Like-named read-outs stand apart in the source and are kept apart here.

Assays:
[1] = molecular target: T1, human MT1-MMP/MMP-14 (catalytic domain) (Homo sapiens, UniProt P50281); experiment: Inhibition of MMP-14, fluorescence quenched peptide substrate McaPLGL(Dpa)AR-NH2; format: biochemical; conditions: for Ki: substrate McaPLGL(Dpa)AR-NH2 4 µM, 30 min pre-incubation at room temperature, calculated from IC50, read-out: Ki ± s.d. MMP-14; for effect of 100 μM compound on MMP-14 activity: pre-incubation 0-45 min
T1 construct: human MT1-MMP/MMP-14 (catalytic domain); purchased Calbiochem (San Diego, CA, USA)
Experimental: (§1) McaPLGL(Dpa)AR-NH2 was used as a substrate for MMP-9 and MMP-14, while McaRPPGFSAFK(Dnp)-OH was used as substrate for ALN, PLN and TLN. The reaction velocities/initial rates (v) were determined at 37 °C, at an excitation wavelength of 320 nm and an emission wavelength of 405 nm with a slit width of 10 nm using either a Perkin Elmer LS 50 Luminescence spectrometer and the FL WinLab Software Package (Perkin Elmer) or a Clario Star microplate reader (CLARIOstar® BMG LABTECH).
(§2) The test compounds were dissolved in 100% DMSO giving a concentration of 10 mM. A fixed substrate concentration of 4.0 µM in a total volume of 100 µL 0.1 M Hepes pH 7.5, 10 mM CaCl2, 0.005% Brij-35 and 1.0% DMSO, were used in all assays, except for ALN where the substrate concentration was 5.0 µM. The fixed enzyme concentrations were as follows; 0.05 nM MMP-9, 1.0 nM MMP-14, 1.4 nM ALN, 0.5 nM PLN and 0.21 nM TLN. Time-dependent inhibitory experiments without and with 100 μM of testing compounds were performed as follows. Compounds were either pre-incubated with the proteases for 15, 30 and 45 min at room temperature and the enzymatic reaction was started by adding the substrate, or not pre-incubated, i.e., the reaction was started by adding the protease to the mixture of substrate and compound. Control tests without compound present were performed in the same way. The reaction was followed for 30 min at 37 °C.
(§3) Enzymes with and without inhibitor were pre-incubated for 30 min at room temperature, and initial rate assays were performed as described above. Assays were performed using a Clario Star microplate reader (CLARIOstar® BMG LABTECH). The IC50 values were calculated in Graph Pad Prism 5 using Equation (1):(1) vi/v0=1/(1+10^(pIC50−pI)) where vi is the enzyme activity in the presence of inhibitor, v0 the activity in the absence of inhibitor, pI = −log [Inhibitor] in M and pIC50 = −log IC50 in M. All experiments were performed in at least triplicate.

[2] = molecular target: T2, recombinant human MMP-9 (Homo sapiens, UniProt P14780); experiment: Inhibition of MMP-9, fluorescence quenched peptide substrate McaPLGL(Dpa)AR-NH2; format: biochemical; conditions: for Ki: substrate McaPLGL(Dpa)AR-NH2 4 µM, 30 min pre-incubation at room temperature, calculated from IC50, read-out: Ki ± s.d. MMP-9; for effect of 100 μM compound on MMP-9 activity: pre-incubation 0-45 min
T2 construct: made in house; host or cells: Sf9 insect cells
T2 sequence (P14780 107-707 limits assumed): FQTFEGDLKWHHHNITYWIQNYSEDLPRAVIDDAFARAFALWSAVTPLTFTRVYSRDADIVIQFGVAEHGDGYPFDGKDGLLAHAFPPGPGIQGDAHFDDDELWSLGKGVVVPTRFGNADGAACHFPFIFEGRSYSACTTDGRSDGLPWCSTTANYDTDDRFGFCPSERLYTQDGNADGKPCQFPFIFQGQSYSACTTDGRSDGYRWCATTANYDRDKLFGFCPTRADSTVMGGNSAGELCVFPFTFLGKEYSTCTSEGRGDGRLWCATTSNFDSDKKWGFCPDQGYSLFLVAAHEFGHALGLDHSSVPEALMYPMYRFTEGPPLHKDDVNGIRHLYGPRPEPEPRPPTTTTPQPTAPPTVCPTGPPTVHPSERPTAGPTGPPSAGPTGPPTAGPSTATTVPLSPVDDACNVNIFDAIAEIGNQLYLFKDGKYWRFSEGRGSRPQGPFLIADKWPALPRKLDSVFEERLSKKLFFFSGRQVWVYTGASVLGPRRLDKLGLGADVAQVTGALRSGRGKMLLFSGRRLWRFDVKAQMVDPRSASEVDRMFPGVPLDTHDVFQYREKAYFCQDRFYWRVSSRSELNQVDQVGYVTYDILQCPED
Experimental: The expression and purification of recombinant human full-length proMMP-9 (rpMMP-9) from Sf9 insect cells were performed as described previously. The amount of proMMP-9 was estimated spectrophotometrically at 280 nm using ε280 nm = 114.36 mM^−1 cm^−1 [48]. Activation of the recombinant proMMP-9 was performed with APMA (auto-activation) as described previously. The amount of active MMP-9 was determined by active site titration using galardin also described previously.
as §1, §2, §3

[3] = molecular target: T3, pseudolysin (PLN) (Pseudomonas aeruginosa, UniProt P14756); experiment: Inhibition of pseudolysin (PLN), substrate McaRPPGFSAFK(Dnp)-OH; format: biochemical; conditions: for effect of 100 μM compound on PLN activity: pre-incubation 0-45 min
T3 construct: purchased Calbiochem (San Diego, CA, USA)
T3 sequence (P14756 198-498): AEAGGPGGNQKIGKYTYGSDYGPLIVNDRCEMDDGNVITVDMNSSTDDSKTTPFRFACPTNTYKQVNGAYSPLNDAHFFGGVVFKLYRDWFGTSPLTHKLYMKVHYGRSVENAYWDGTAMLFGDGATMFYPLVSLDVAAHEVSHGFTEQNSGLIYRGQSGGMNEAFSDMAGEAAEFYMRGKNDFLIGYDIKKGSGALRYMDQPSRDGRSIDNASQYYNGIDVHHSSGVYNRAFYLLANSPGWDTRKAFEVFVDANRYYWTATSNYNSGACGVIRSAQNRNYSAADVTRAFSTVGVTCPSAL
Experimental: as §1, §2, §3

[4] = molecular target: T4, aureolysin (ALN) (Staphylococcus aureus, UniProt P81177); experiment: Inhibition of aureolysin (ALN), substrate McaRPPGFSAFK(Dnp)-OH; format: biochemical; conditions: for effect of 100 μM compound on ALN activity: pre-incubation 0-45 min
T4 construct: purchased BioCentrum Ltd. (Kraków, Poland)
T4 sequence (P81177 209-509): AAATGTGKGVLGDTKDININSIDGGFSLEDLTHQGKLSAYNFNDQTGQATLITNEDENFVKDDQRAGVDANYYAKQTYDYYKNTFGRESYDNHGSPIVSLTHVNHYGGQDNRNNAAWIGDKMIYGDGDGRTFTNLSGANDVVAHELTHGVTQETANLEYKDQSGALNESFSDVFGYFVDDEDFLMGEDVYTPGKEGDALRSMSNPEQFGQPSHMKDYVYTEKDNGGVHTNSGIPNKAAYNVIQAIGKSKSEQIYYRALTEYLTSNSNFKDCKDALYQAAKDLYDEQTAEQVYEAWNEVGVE
Experimental: as §1, §2, §3

[5] = molecular target: T5, thermolysin (TLN) (Bacillus thermoproteolyticus, UniProt P00800); experiment: Inhibition of thermolysin (TLN), substrate McaRPPGFSAFK(Dnp)-OH; format: biochemical; conditions: for Ki: substrate McaRPPGFSAFK(Dnp)-OH 4 µM, 30 min pre-incubation at room temperature, calculated from IC50, read-out: Ki ± s.d. TLN; for effect of 100 μM compound on TLN activity: pre-incubation 0-45 min
T5 construct: purchased Calbiochem (San Diego, CA, USA)
T5 sequence (P00800 233-548): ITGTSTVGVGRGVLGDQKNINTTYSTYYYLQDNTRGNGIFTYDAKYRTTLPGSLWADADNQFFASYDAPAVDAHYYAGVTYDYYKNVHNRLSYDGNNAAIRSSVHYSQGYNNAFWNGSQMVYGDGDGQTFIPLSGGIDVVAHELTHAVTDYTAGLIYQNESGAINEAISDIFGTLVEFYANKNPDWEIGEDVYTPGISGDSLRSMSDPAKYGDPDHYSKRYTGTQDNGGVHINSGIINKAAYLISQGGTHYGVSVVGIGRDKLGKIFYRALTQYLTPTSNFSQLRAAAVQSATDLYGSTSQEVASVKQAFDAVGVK
Experimental: as §1, §2, §3

[6] = cited from earlier work
[7] = test system: VIM-2; parameters: method as in PMID 32179522; conditions: cited from earlier work
[8] = test system: NDM-1; parameters: method as in PMID 32179522; conditions: cited from earlier work
[9] = test system: Gram-negative pathogens; parameters: method as in PMID 32179522; conditions: cited from earlier work
[10] = cited from earlier work; remark: listed apart in the source

COC(=O)Cc1ccc(NC(=O)c2ccc(CN(Cc3ccccn3)Cc3ccccn3)nc2)cc1 [Zn244]
Ki [1]: 4 ± 0.3 µM
Ki [2]: 22 ± 6 µM
IC50 [3]: 4.46 ± 0.05 µM
Ki [3]: 4 ± 1 µM

O=C(O)c1ccc(CN(Cc2ccccn2)Cc2ccccn2)nc1 [Zn146]
Ki [1]: 3.8 ± 0.3 µM
Ki [2]: 21 ± 5 µM
Ki [4]: 25 ± 2 µM
Ki [3]: 4 ± 1 µM

O=C(O)c1ccc(CN(CCN(Cc2ccccn2)Cc2ccccn2)Cc2ccc(C(=O)O)cn2)nc1 [Zn239]
Ki [1]: 6.1 ± 0.5 µM
Ki [2]: 58 ± 14 µM
Ki [3]: 5 ± 2 µM
Ki [5]: 32 ± 5 µM

CN(C[C@H](O)[C@@H](O)[C@H](O)[C@H](O)CO)C(=O)c1ccc(CN(Cc2ccccc2)Cc2ccccc2)nc1 [Zn222]
effect of 100 μM compound on MMP-14 activity [1]: weaker binding than Zn148; also recorded: binding was prevented
effect of 100 μM compound on MMP-9 activity [2]: weaker binding than Zn148
effect of 100 μM compound on ALN activity [4]: no effect
effect of 100 μM compound on PLN activity [3]: weaker binding than Zn148
effect of 100 μM compound on TLN activity [5]: no effect
Kd ([6]; read-out: Kd (zinc)): 1000 nM
inactivation of MBL VIM-2 [7]: did not inactivate
inactivation of MBL NDM-1 [8]: did not inactivate
reversal of carbapenem resistance in Gram-negative pathogens [9]: lacked the ability to reverse carbapenem resistance

CC(N)C(=O)NC(C)C(=O)NCCc1ccc(NC(=O)c2ccc(CN(Cc3ccccn3)Cc3ccccn3)nc2)cc1 (stereo not shown) [Zn155]
Ki [1]: 2.4 ± 0.2 µM
Ki [2]: 26 ± 6 µM
Ki [4]: 60 ± 6 µM
Ki [3]: 6 ± 2 µM

CN(C[C@H](O)[C@@H](O)[C@H](O)[C@H](O)CO)C(=O)c1ccc(CN(Cc2ccccn2)Cc2ccccn2)nc1 [Zn148]
Ki [1]: 8.6 ± 0.7 µM
effect of 100 μM compound on ALN activity [4]: no or only a limited effect
IC50 [3]: 6.07 ± 0.08 µM
Ki [3]: 5 ± 2 µM
effect of 100 μM compound on TLN activity [5]: no or only a limited effect
Kd ([6]; read-out: Kd (zinc)): 0.001 nM
inactivation of MBL VIM-2 [7]: irreversible inhibitor
inactivation of MBL NDM-1 [8]: irreversible inhibitor
reversal of carbapenem resistance in Gram-negative pathogens [9]: reverse carbapenem resistance
acute toxicity ([10]; female BALB/c mice): limited in vivo toxicity
acute toxicity ([10]; mouse, in vivo): without acute toxicity

COC(=O)c1ccc(CN(Cc2ccccn2)Cc2ccccn2)nc1 [Zn145]
Ki [1]: 1.5 ± 0.1 µM
Ki [3]: 12 ± 4 µM

O=C(NC[C@H](O)[C@@H](O)[C@H](O)[C@H](O)CO)c1ccc(CN(Cc2ccccn2)Cc2ccccn2)nc1 [Zn230]
Ki [1]: 3.5 ± 0.3 µM
Ki [2]: 22 ± 6 µM
Ki [4]: 20 ± 2 µM
Ki [3]: 1.1 ± 0.3 µM
Ki [5]: 12 ± 2 µM

c1ccc(CNCc2ccccn2)nc1 [DPA, di(2-pyridinemethyl)amine, reference compound]
effect of 100 μM compound on MMP-14 activity [1]: greatly enhanced
Ki [3]: 4 ± 1 µM
effect of 100 μM compound on PLN activity [3]: Moderately strong inhibition
Kd ([6]; read-out: Kd (zinc-binder)): ~10 nM

COC(=O)c1ccc(CN(Cc2cccs2)Cc2cccs2)nc1 [Zn216]
effect of 100 μM compound on MMP-14 activity [1]: weak inhibition or lack of inhibition
effect of 100 μM compound on PLN activity [3]: weak inhibition or lack of inhibition

CN(C[C@H](O)[C@@H](O)[C@H](O)[C@H](O)CO)C(=O)c1ccc(CN(Cc2ccccc2)Cc2ccccn2)nc1 [Zn223]
effect of 100 μM compound on MMP-14 activity [1]: weaker binding than Zn148; also recorded: binding was prevented
effect of 100 μM compound on MMP-9 activity [2]: weaker binding than Zn148
effect of 100 μM compound on ALN activity [4]: no effect
effect of 100 μM compound on PLN activity [3]: weaker binding than Zn148
effect of 100 μM compound on TLN activity [5]: no effect
Kd ([6]; read-out: Kd (zinc)): 100 nM
inactivation of MBL VIM-2 [7]: reduced capability to inactivate
inactivation of MBL NDM-1 [8]: reduced capability to inactivate
reversal of carbapenem resistance in Gram-negative pathogens [9]: lacked the ability to reverse carbapenem resistance

CC(=O)OC[C@@H](OC(C)=O)[C@@H](OC(C)=O)[C@H](OC(C)=O)[C@H](CN(C)C(=O)c1ccc(CN(Cc2ccccn2)Cc2ccccn2)nc1)OC(C)=O [Zn224]
Ki [1]: 4.5 ± 0.4 µM
Ki [3]: 13 ± 4 µM

CC(N)C(=O)NC(C)C(=O)N1CCN(C(=O)c2ccc(CN(Cc3ccccn3)Cc3ccccn3)nc2)CC1 (stereo not shown) [Zn177]
Ki [1]: 11.2 ± 0.9 µM
Ki [2]: 56 ± 14 µM
Ki [3]: 11 ± 4 µM

O=C(NCCc1ccc(NC(=O)c2ccc(CN(Cc3ccccn3)Cc3ccccn3)nc2)cc1)c1ccc(CN(Cc2ccccn2)Cc2ccccn2)nc1 [Zn175]
Ki [2]: 6 ± 2 µM
Ki [4]: 14 ± 1 µM
Ki [3]: 7 ± 2 µM

NCCc1ccc(NC(=O)CN(CCN(Cc2ccccn2)Cc2ccccn2)Cc2ccccn2)cc1 [Zn45]
Ki [1]: 2.5 ± 0.2 µM
Ki [3]: 2.8 ± 0.9 µM
Ki [5]: 7 ± 1 µM

O=C(NCc1ccc(CN(Cc2ccccn2)Cc2ccccn2)nc1)C1OC(O)C(O)C(O)C1O (stereo not shown) [Zn227]
Ki [1]: 4.8 ± 0.4 µM
Ki [2]: 77 ± 19 µM
Ki [3]: 9 ± 3 µM
Ki [5]: 11 ± 2 µM

CCN(C[C@H](O)[C@@H](O)[C@H](O)[C@H](O)CO)C(=O)c1ccc(CN(Cc2ccccn2)Cc2ccccn2)nc1 [Zn225]
Ki [1]: 4.5 ± 0.4 µM
Ki [2]: 28 ± 7 µM
Ki [3]: 5 ± 2 µM
Ki [5]: 9 ± 2 µM

COC(=O)c1ccc(CN(Cc2cccs2)Cc2cccs2)s1 [Zn215]
effect of 100 μM compound on MMP-14 activity [1]: weak inhibition or lack of inhibition
effect of 100 μM compound on PLN activity [3]: weak inhibition or lack of inhibition
